Here are results for four compounds from patent publication US20070191426A1, “Derivatives of 3-aminocarbonylquinoline, pharmaceutical compositions containing them and processes and intermediates for their preparation” (priority 2003, published 2007).

The target of assay [1] is T1, PDE4B (human recombinant) (Homo sapiens, UniProt Q07343).
T1 construct: made in house
As to the kind of experiment: Inhibition of PDE4B activity: radioactive Scintillation Proximity Assay (SPA). Conditions: SPA assay (Examples 1 to 6); read-out: PDE4B mean pIC50 (converted). It is filed as biochemical. The text has this:
Human recombinant PDE4B, in particular the 2B splice variant thereof (HSPDE4B2B), is disclosed in WO 94/20079 and also in M. M. McLaughlin et al., “A low Km, rolipram-sensitive, cAMP-specific phosphodiesterase from human brain: cloning and expression of cDNA, biochemical characterization of recombinant protein, and tissue distribution of mRNA”, J. Biol. Chem., 1993, 268, 6470-6476. For example, in Example 1 of WO 94/20079, human recombinant PDE4B is described as being expressed in the PDE-deficient yeast Saccharomyces cerevisiae strain GL62, e.g. after induction by addition of 150 uM CuSO4, and 100,000×g supernatant fractions of yeast cell lysates are described for use in the harvesting of PDE4B enzyme.
(§1) Inhibition of PDE3, PDE4B, PDE4D, PDE5 or PDE6 Activity: Radioactive Scintillation Proximity Assay (SPA)
(§2) The ability of compounds to inhibit catalytic activity at PDE4B or 4D (human recombinant), PDE3 (from bovine aorta) PDE5 (human recombinant) or PDE 6 (from bovine retina) was may be determined by Scintillation Proximity Assay (SPA) in 96-well format. Test compounds (preferably as a solution in DMSO, e.g. 2 microlitre (μl) volume) were preincubated at ambient temperature in Wallac Isoplates (code 1450-514) with PDE enzyme in 50 mM Tris-HCl buffer pH 7.5, 8.3 mM MgCl2, 1.7 mM EGTA, 0.05% (w/v) bovine serum albumin for 10-30 minutes. The enzyme concentration was adjusted so that control rates are linear over the assay incubation period. For the PDE3, PDE4B and PDE4D assays […] 3′,5′-cyclic phosphate (Amersham Pharmacia Biotech, code TRK.559 or Amersham Biosciences UK Ltd, Pollards Wood, Chalfont St Giles, Buckinghamshire HP8 4SP, UK) was added to give 0.05 μCi per well and ˜10 nM final concentration. For the PDE5 and PDE6 assays [8-^3H]guanosine 3′,5′-cyclic phosphate (Amersham Pharmacia Biotech , code TRK.392) was added to give 0.05 μCi per well and ˜36 nM final concentration. Plates e.g. containing approx. 100 μl volume of assay mixture were mixed on an orbital shaker for 5 minutes and incubated at ambient temperature for 1 hour. Phosphodiesterase SPA beads (Amersham Pharmacia Biotech, code RPNQ 0150) were added (˜1 mg per well) to terminate the assay. Plates were sealed and shaken and allowed to stand at ambient temperature for 35 minutes to 1 hour to allow the beads to settle. Bound radioactive product was measured using a WALLAC TRILUX 1450 MicroBeta scintillation counter. […] Curves were analyzed using ActivityBase and XLfit (ID Business Solutions Limited, 2 Ocean Court, Surrey Research Park, Guildford, Surrey GU2 7QB, United Kindgom). Results were expressed as pIC50 values.
Background: SPA uses beads or plates that emit light when radiolabelled molecules are held near them.

The next assay deals with PDE5 (human recombinant) (Homo sapiens, UniProt O76074). As to the kind of experiment: Inhibition of PDE5 activity: radioactive Scintillation Proximity Assay (SPA). It is filed as biochemical. Conditions: SPA assay (all Examples); read-out: PDE5 mean pIC50 (converted).
Excerpt: Human recombinant PDE5 is disclosed in K. Loughney et al., “Isolation and characterization of cDNAs encoding PDE5A, a human cGMP-binding, cGMP-specific 3′,5′-cyclic nucleotide phosphodiesterase”, Gene, 1998, 216, 139-147.
as §1, §2

Where only a bound is given, the exact number is not on record here.

T1 sequence (Q07343 1-564 isoform Q07343-2): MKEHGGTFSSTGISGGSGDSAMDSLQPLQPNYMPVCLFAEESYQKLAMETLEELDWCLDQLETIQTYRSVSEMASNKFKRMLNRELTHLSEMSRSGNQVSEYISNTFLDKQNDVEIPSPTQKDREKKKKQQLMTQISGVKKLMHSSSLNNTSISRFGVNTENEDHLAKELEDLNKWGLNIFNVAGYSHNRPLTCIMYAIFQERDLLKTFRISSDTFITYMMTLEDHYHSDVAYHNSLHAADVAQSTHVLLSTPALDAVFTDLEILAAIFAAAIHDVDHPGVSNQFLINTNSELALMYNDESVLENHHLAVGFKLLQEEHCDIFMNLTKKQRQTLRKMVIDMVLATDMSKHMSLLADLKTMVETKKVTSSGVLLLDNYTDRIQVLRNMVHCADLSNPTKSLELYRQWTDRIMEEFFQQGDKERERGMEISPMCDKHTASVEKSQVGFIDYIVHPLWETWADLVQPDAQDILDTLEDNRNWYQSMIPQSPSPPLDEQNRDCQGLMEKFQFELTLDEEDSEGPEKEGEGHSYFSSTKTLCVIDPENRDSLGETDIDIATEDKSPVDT

Consider `COc1cccc(Nc2c(C(N)=O)cnc3ccc(C(=O)N4CCOCC4)cc23)c1` [Example 1, 4-{[3-(Methyloxy)phenyl]amino}-6-(4-morpholinylcarbonyl)-3-quinolinecarboxamide], for which the results for the IC50 (in assay [1]; on PDE5 (human recombinant)) were 10 nM and above 31600 nM, respectively.

Take `COc1cccc(Nc2c(C(N)=O)cnc3ccc(C(=O)Nc4ccccc4)cc23)c1` [Example 2, 4-{[3-(methyloxy)phenyl]amino}-N^6-phenyl-3,6-quinolinedicarboxamide]: the IC50 in assay [1] is 25.1 nM; on PDE5 (human recombinant) it was above 31600 nM.

`COc1cccc(Nc2c(C(N)=O)cnc3ccc(C(=O)NC(C)(C)C)cc23)c1` [Example 3]: the IC50 in assay [1] is 39.8 nM; at PDE5 (human recombinant), above 31600 nM.

With `CNC(=O)c1ccc2ncc(C(N)=O)c(Nc3cccc(OC)c3)c2c1` [Example 6], the IC50 in assay [1] is 501 nM; at PDE5 (human recombinant) it was above 31600 nM.
